{"source": "ChEMBL document CHEMBL3045244", "about": "“Design and synthesis of novel piperazine unit condensed 2,6-diarylpiperidin-4-one derivatives as antituberculosis and antimicrobial agents” (2012)", "key": {"Staphylococcus aureus": {"tested_on": "Staphylococcus aureus", "assay": "Antibacterial activity against Staphylococcus aureus ATCC 25833 after 24 hr by two-fold serial dilution method", "format": "functional", "conditions": "ATCC 25833, 24 h"}, "Salmonella typhi [1]": {"tested_on": "Salmonella typhi", "assay": "Antibacterial activity against Salmonella enterica subsp. enterica serovar Typhi ATCC 24930 after 24 hr by two-fold serial dilution method", "format": "functional", "conditions": "ATCC 24930, 24 h"}, "Bacillus subtilis": {"tested_on": "Bacillus subtilis", "assay": "Antibacterial activity against Bacillus subtilis ATCC 461 after 24 hr by two-fold serial dilution method", "format": "functional", "conditions": "ATCC 461, 24 h"}, "[2]": {"tested_on": "Mycobacterium tuberculosis", "assay": "Antituberculosis activity against Mycobacterium tuberculosis H37Rv ATCC 27294 after 21 days by BACTEC based radiometric respiratory technique", "format": "functional", "conditions": "H37Rv ATCC 27294, 504 h"}, "Rhizopus": {"tested_on": "Rhizopus", "assay": "Antifungal activity against Rhizopus sp. ATCC 2920 after 72 to 96 hr by two-fold serial dilution method", "format": "functional"}, "Escherichia coli": {"tested_on": "Escherichia coli", "assay": "Antibacterial activity against Escherichia coli ATCC 25840 after 24 hr by two-fold serial dilution method", "format": "functional", "conditions": "ATCC 25840, 24 h"}, "Aspergillus niger": {"tested_on": "Aspergillus niger", "assay": "Antifungal activity against Aspergillus niger ATCC 591 after 72 to 96 hr by two-fold serial dilution method", "format": "functional"}, "Candida albicans": {"tested_on": "Candida albicans", "assay": "Antifungal activity against Candida albicans ATCC 3130 after 72 to 96 hr by two-fold serial dilution method", "format": "functional"}, "Aspergillus flavus [3]": {"tested_on": "Aspergillus flavus", "assay": "Antifungal activity against Aspergillus flavus ATCC 470 after 72 to 96 hr by two-fold serial dilution method", "format": "functional"}, "Cryptococcus neoformans": {"tested_on": "Cryptococcus neoformans", "assay": "Antifungal activity against Cryptococcus neoformans ATCC 3315 after 72 to 96 hr by two-fold serial dilution method", "format": "functional"}, "Klebsiella pneumoniae": {"tested_on": "Klebsiella pneumoniae", "assay": "Antibacterial activity against Klebsiella pneumoniae ATCC 15499 after 24 hr by two-fold serial dilution method", "format": "functional", "conditions": "ATCC 15499, 24 h"}, "[4]": {"tested_on": "Mycobacterium tuberculosis", "assay": "Ratio of isoniazid MIC to compound MIC for Mycobacterium tuberculosis H37Rv ATCC 27294", "format": "functional"}, "Aspergillus flavus [5]": {"tested_on": "Aspergillus flavus", "assay": "Antifungal activity against Aspergillus flavus ATCC 470 at 200 ug/ml after 72 to 96 hr by two-fold serial dilution method", "format": "functional, organism-based"}, "[6]": {"tested_on": "Mycobacterium tuberculosis", "assay": "Ratio of rifampicin MIC to compound MIC for Mycobacterium tuberculosis H37Rv ATCC 27294", "format": "functional"}, "Salmonella typhi [7]": {"tested_on": "Salmonella typhi", "assay": "Antibacterial activity against Salmonella enterica subsp. enterica serovar Typhi ATCC 24930 at 200 ug/ml after 24 hr by two-fold serial dilution method", "format": "functional, organism-based"}}, "note": "The source made the active and inactive calls. The rule behind the calls is not given here.", "data": [{"compound": "CCOC(=O)N1CCN(CC(=O)N2C(c3ccc(F)cc3)CC(=O)C(C)C2c2ccc(F)cc2)CC1", "note": "(stereo unspecified)", "values": [{"measurement": "MIC", "setting": "Staphylococcus aureus", "result": 50, "unit": "µg/mL"}, {"measurement": "MIC", "setting": "Salmonella typhi [1]", "result": 25, "unit": "µg/mL"}, {"measurement": "MIC", "setting": "Bacillus subtilis", "result": 25, "unit": "µg/mL"}, {"measurement": "MIC", "setting": "[2]", "result": "> 256", "unit": "µg/mL"}, {"measurement": "MIC", "setting": "Rhizopus", "result": 100, "unit": "µg/mL"}, {"measurement": "MIC", "setting": "Escherichia coli", "result": 100, "unit": "µg/mL"}, {"measurement": "MIC", "setting": "Aspergillus niger", "result": 100, "unit": "µg/mL"}, {"measurement": "MIC", "setting": "Candida albicans", "result": 25, "unit": "µg/mL"}, {"measurement": "MIC", "setting": "Aspergillus flavus [3]", "result": 25, "unit": "µg/mL"}, {"measurement": "MIC", "setting": "Cryptococcus neoformans", "result": 25, "unit": "µg/mL"}, {"measurement": "MIC", "setting": "Klebsiella pneumoniae", "result": 12.5, "unit": "µg/mL"}]}, {"compound": "NNC(=O)c1ccncc1", "note": "[ISONIAZID]", "values": [{"measurement": "MIC", "setting": "[2]", "result": 0.25, "unit": "µg/mL"}]}, {"compound": "CCOC(=O)N1CCN(CC(=O)N2C(c3ccc(Cl)cc3)C(C)C(=O)C(C)C2c2ccc(Cl)cc2)CC1", "note": "(stereo unspecified)", "values": [{"measurement": "MIC", "setting": "Staphylococcus aureus", "result": 50, "unit": "µg/mL"}, {"measurement": "MIC", "setting": "Salmonella typhi [1]", "result": 25, "unit": "µg/mL"}, {"measurement": "MIC", "setting": "Bacillus subtilis", "result": 50, "unit": "µg/mL"}, {"measurement": "MIC", "setting": "[2]", "result": 16, "unit": "µg/mL"}, {"measurement": "Ratio", "setting": "[4]", "result": 1.56}, {"measurement": "MIC", "setting": "Rhizopus", "result": 25, "unit": "µg/mL"}, {"measurement": "MIC", "setting": "Escherichia coli", "result": 100, "unit": "µg/mL"}, {"measurement": "MIC", "setting": "Aspergillus niger", "result": 50, "unit": "µg/mL"}, {"measurement": "MIC", "setting": "Candida albicans", "result": 100, "unit": "µg/mL"}, {"measurement": "Activity", "setting": "Aspergillus flavus [5]", "result": "inactive"}, {"measurement": "Ratio", "setting": "[6]", "result": 200}, {"measurement": "MIC", "setting": "Cryptococcus neoformans", "result": 200, "unit": "µg/mL"}, {"measurement": "MIC", "setting": "Klebsiella pneumoniae", "result": 50, "unit": "µg/mL"}]}, {"compound": "CCOC(=O)N1CCN(CC(=O)N2C(c3ccc(OC)cc3)C(C)C(=O)C(C)C2c2ccc(OC)cc2)CC1", "note": "(stereo unspecified)", "values": [{"measurement": "MIC", "setting": "Staphylococcus aureus", "result": 100, "unit": "µg/mL"}, {"measurement": "MIC", "setting": "Salmonella typhi [1]", "result": 100, "unit": "µg/mL"}, {"measurement": "MIC", "setting": "Bacillus subtilis", "result": 50, "unit": "µg/mL"}, {"measurement": "MIC", "setting": "[2]", "result": 16, "unit": "µg/mL"}, {"measurement": "Ratio", "setting": "[4]", "result": 1.56}, {"measurement": "MIC", "setting": "Rhizopus", "result": 50, "unit": "µg/mL"}, {"measurement": "MIC", "setting": "Escherichia coli", "result": 200, "unit": "µg/mL"}, {"measurement": "MIC", "setting": "Aspergillus niger", "result": 100, "unit": "µg/mL"}, {"measurement": "MIC", "setting": "Aspergillus flavus [3]", "result": 100, "unit": "µg/mL"}, {"measurement": "Ratio", "setting": "[6]", "result": 200}, {"measurement": "MIC", "setting": "Cryptococcus neoformans", "result": 200, "unit": "µg/mL"}, {"measurement": "MIC", "setting": "Klebsiella pneumoniae", "result": 100, "unit": "µg/mL"}]}, {"compound": "CCOC(=O)N1CCN(CC(=O)N2C(c3cccc(F)c3)C(C)C(=O)C(C)C2c2cccc(F)c2)CC1", "note": "(stereo unspecified)", "values": [{"measurement": "MIC", "setting": "Staphylococcus aureus", "result": 6.25, "unit": "µg/mL"}, {"measurement": "MIC", "setting": "Bacillus subtilis", "result": 12.5, "unit": "µg/mL"}, {"measurement": "MIC", "setting": "[2]", "result": 16, "unit": "µg/mL"}, {"measurement": "Activity", "setting": "Salmonella typhi [7]", "result": "inactive"}, {"measurement": "Ratio", "setting": "[4]", "result": 1.56}, {"measurement": "MIC", "setting": "Rhizopus", "result": 12.5, "unit": "µg/mL"}, {"measurement": "MIC", "setting": "Escherichia coli", "result": 50, "unit": "µg/mL"}, {"measurement": "MIC", "setting": "Aspergillus niger", "result": 6.25, "unit": "µg/mL"}, {"measurement": "MIC", "setting": "Candida albicans", "result": 100, "unit": "µg/mL"}, {"measurement": "Activity", "setting": "Aspergillus flavus [3]", "result": "inactive"}, {"measurement": "Ratio", "setting": "[6]", "result": 200}, {"measurement": "MIC", "setting": "Cryptococcus neoformans", "result": 25, "unit": "µg/mL"}, {"measurement": "MIC", "setting": "Klebsiella pneumoniae", "result": 100, "unit": "µg/mL"}]}, {"compound": "C[C@@H]1[C@H](O)[C@@H](C)/C=C/C=C/C=C/C=C/C=C/C=C/C=C/[C@H](O[C@@H]2O[C@H](C)[C@@H](O)[C@H](N)[C@@H]2O)C[C@@H]2O[C@](O)(C[C@@H](O)C[C@@H](O)[C@H](O)CC[C@@H](O)C[C@@H](O)CC(=O)O[C@H]1C)C[C@H](O)[C@H]2C(=O)O", "note": "[AMPHOTERICIN B]", "values": [{"measurement": "MIC", "setting": "Rhizopus", "result": 25, "unit": "µg/mL"}, {"measurement": "MIC", "setting": "Aspergillus niger", "result": 50, "unit": "µg/mL"}, {"measurement": "MIC", "setting": "Candida albicans", "result": 25, "unit": "µg/mL"}, {"measurement": "MIC", "setting": "Aspergillus flavus [3]", "result": 50, "unit": "µg/mL"}, {"measurement": "MIC", "setting": "Cryptococcus neoformans", "result": 25, "unit": "µg/mL"}]}, {"compound": "CCOC(=O)N1CCN(CC(=O)N2C(c3cccc(F)c3)CC(=O)C(C)C2c2cccc(F)c2)CC1", "note": "(stereo unspecified)", "values": [{"measurement": "MIC", "setting": "Staphylococcus aureus", "result": 50, "unit": "µg/mL"}, {"measurement": "MIC", "setting": "Bacillus subtilis", "result": 100, "unit": "µg/mL"}, {"measurement": "MIC", "setting": "[2]", "result": "> 256", "unit": "µg/mL"}, {"measurement": "Activity", "setting": "Salmonella typhi [7]", "result": "inactive"}, {"measurement": "MIC", "setting": "Rhizopus", "result": 50, "unit": "µg/mL"}, {"measurement": "MIC", "setting": "Escherichia coli", "result": 6.25, "unit": "µg/mL"}, {"measurement": "MIC", "setting": "Aspergillus niger", "result": 25, "unit": "µg/mL"}, {"measurement": "MIC", "setting": "Candida albicans", "result": 6.25, "unit": "µg/mL"}, {"measurement": "MIC", "setting": "Aspergillus flavus [3]", "result": 100, "unit": "µg/mL"}, {"measurement": "MIC", "setting": "Cryptococcus neoformans", "result": 12.5, "unit": "µg/mL"}, {"measurement": "MIC", "setting": "Klebsiella pneumoniae", "result": 6.25, "unit": "µg/mL"}]}]}
